Results taken from patent US7842316B2, “Cosmetic compositions having extracts of Amomum melegueta and methods of treating skin” (Avon Products, Inc., priority 2007, dated 2010).

Molecular target: T1, COX-2 (Ovis aries, UniProt P79208)
T1 sequence (P79208 17-603): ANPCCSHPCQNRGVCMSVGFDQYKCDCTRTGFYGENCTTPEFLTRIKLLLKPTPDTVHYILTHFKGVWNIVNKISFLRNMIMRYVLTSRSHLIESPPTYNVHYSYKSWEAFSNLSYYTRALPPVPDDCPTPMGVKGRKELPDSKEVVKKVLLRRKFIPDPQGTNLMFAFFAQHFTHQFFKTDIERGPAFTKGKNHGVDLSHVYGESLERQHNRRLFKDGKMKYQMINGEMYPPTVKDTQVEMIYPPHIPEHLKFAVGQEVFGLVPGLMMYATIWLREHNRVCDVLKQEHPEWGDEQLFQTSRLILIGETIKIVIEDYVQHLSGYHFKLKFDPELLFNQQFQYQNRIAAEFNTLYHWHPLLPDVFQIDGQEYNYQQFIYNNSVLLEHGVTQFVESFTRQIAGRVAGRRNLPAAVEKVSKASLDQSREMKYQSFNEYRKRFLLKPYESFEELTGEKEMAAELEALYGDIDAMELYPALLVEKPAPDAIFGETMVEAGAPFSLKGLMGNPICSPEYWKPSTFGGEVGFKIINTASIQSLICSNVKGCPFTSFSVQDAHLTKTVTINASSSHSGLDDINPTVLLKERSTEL
Assay: colorimetric COX (ovine) inhibitor screening assay
Format: biochemical
Details: Vioxx used as positive control; concentration not given

SMILES: CS(=O)(=O)c1ccc(C2=C(c3ccccc3)C(=O)OC2)cc1 [Vioxx]
- level of inhibition (COX-2 inhibitory activity), positive control: 90%
